Experimental data taken from ChEMBL document CHEMBL1201862, “PubChem BioAssay data set” (2004).
Activity calls are given as the source filed them.

Experiments:
[1] = viability loss in MITF-independent A375 cells – cell-based, CellTiter-Glo luminescence, dry powder, set 2, counter-screen for MITF inhibitor project, dose response (AID 624489); type: functional; conditions: A-375;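 note: actives are compounds lowering A375 viability meaning general cytotoxicity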
[2] = cytotoxicity in MITF-independent A375 cells – cell-based, CellTiter-Glo luminescence, dry powder, set 4, counter-screen for MITF inhibitor project, dose response (AID 624364); type: functional; conditions: A-375;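 note: A375 melanoma cells are MITF independent so this is a counter screen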
[3] = PAX8-dependent cell viability loss – plate reader, dry powder, dose response (AID 743049); type: functional, cell-based
[4] = viability loss of HMLE_sh_eGFP cells – cell-based, luminescence, counter-screen for HMLE_sh_ECad selective toxicity project, dose response (AID 463074); type: functional, Homo sapiens;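 note: HMLE human mammary epithelial cells expressing control shRNA against eGFP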
[5] = DRD fibroblast viability loss – cell-based, non-viral oncogenic, luminescence, dose response (AID 1934); type: functional; conditions: Homo sapiens
[6] = IGROV1 cell killing – plate reader, dry powder samples, PAX8 inhibitor project, dose response (AID 743043); type: functional, cell-based; conditions: IGROV-1
Paired box protein Pax-8 = Paired box protein Pax-8 (Homo sapiens, UniProt Q06710); experiment: PAX8 transcriptional activity inhibition in RMG-I – RMG-I cells, luciferase, cherry-pick, dose response (AID 687027); type: functional, cell-based;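 note: luciferase reporter driven by Pax8 target thyroperoxidase promoter measured by SteadyGlo luminescence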
Paired box protein Pax-8, sequence (Q06710 whole entry): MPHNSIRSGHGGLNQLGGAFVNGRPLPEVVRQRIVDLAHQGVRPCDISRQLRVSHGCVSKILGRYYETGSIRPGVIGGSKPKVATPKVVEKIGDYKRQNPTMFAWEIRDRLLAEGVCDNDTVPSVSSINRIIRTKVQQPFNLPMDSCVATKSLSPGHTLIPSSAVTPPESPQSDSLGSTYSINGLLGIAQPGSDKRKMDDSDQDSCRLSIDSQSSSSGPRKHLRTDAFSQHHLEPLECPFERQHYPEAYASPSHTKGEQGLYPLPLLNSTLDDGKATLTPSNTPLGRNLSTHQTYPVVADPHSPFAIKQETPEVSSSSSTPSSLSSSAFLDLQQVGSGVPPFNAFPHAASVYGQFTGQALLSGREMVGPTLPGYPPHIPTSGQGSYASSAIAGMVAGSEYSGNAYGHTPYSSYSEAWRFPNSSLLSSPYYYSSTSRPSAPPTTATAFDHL

[7] = molecular target: T1, Nuclear receptor subfamily 0 group B member 1 (Homo sapiens, UniProt P51843); type: functional, cell-based;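 note: HEK293T cells transfected with SF-1 and DAX-1 plus StAR promoter luciferase reporter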
T1 sequence (P51843 whole entry): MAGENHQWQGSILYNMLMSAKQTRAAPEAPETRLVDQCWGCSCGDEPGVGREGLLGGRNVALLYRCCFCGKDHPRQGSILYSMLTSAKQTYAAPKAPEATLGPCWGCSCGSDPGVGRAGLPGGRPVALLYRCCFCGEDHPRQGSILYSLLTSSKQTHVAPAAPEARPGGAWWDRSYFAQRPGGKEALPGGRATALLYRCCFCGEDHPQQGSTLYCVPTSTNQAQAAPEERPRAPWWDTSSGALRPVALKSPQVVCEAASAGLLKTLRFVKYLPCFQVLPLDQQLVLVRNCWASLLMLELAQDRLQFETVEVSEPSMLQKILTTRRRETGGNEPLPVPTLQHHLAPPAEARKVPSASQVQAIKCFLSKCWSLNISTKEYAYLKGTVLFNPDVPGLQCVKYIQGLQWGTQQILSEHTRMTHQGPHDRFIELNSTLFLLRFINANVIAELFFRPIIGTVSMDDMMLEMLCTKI

[8] = HEK-293T viability loss after treatment – luminescence, T-cell screen hits, cytotoxicity control for TCR NF-kB inhibitor project, dose response (AID 489026); type: functional, cell-based;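 note: cells exposed to compound about 14 hours before the viability readout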
[9] = OV-90 cell viability loss – plate reader, dry powder, SA8, PAX8 inhibitor project, dose response (AID 743149); type: functional, cell-based
[10] = toxicity toward immortalized ovarian surface epithelium – cell-based, plate reader, dry powder samples, cytotoxicity control for PAX8 inhibitor project, dose response (AID 743045); type: functional
[11] = COV434 cell viability loss – plate reader, dry powder, SA7, cytotoxicity control for PAX8 inhibitor project, dose response (AID 743145); type: functional, cell-based
[12] = Luminescence Cell-Based Dose Retest to Confirm Inhibitors of Cancer Stem Cells. [Related pubchem assays (depositor defined):AID2717, AID2721]; type: functional; conditions: Homo sapiens
[13] = PAX5 cellular inhibition readout – cell-based, plate reader, dry powder samples, selectivity assay for PAX8 inhibitor project, dose response (AID 743047); type: functional;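 note: HEK293 cells carrying a Pax5 driven CD19 promoter luciferase reporter; potency of inhibitors that lower reporter luminescence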
[14] = A2780 cell killing – plate reader, dry powder samples, cytotoxicity control, dose response (AID 743046); type: functional, cell-based
BJ = experiment: cells; type: functional, cell-based; conditions: Homo sapiens
[15] = inhibitors acting on PAX2 in cells – cell-based, plate reader, dry powder samples, selectivity assay for PAX8 inhibitor project, dose response (AID 743048); type: functional;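 note: HEK293 cells carrying a WT1 promoter luciferase reporter driven by expressed Pax2; potency is for inhibition of Pax2 driven reporter signal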
[16] = COV362 cell viability loss – plate reader, dry powder, SA12, cytotoxicity control for PAX8 inhibitor project, dose response (AID 743144); type: functional, cell-based
[17] = OVCAR4 cell viability loss – plate reader, dry powder, SA11, cytotoxicity control for PAX8 inhibitor project, dose response (AID 743150); type: functional, cell-based; conditions: OVCAR-4
cells = type: functional, cell-based
[18] = OVCAR-3 cell viability loss – plate reader, dry powder samples, PAX8 inhibitor project, dose response (AID 743044); type: functional, cell-based
[19] = Late stage counterscreen for inhibitors of Trypanosoma brucei methionyl tRNA synthetase (MetRS): Luminescence-based cell-based high throughput dose response assay to identify compounds that are cytotoxic to Jurkat human T lymphocyte cells.; type: functional
[20] = molecular target: T2, Methionyl-tRNA synthetase, putative (Trypanosoma brucei brucei, UniProt Q38C91); type: functional, Trypanosoma brucei brucei strain 927/4 GUTat10.1
T2 sequence (Q38C91 whole entry): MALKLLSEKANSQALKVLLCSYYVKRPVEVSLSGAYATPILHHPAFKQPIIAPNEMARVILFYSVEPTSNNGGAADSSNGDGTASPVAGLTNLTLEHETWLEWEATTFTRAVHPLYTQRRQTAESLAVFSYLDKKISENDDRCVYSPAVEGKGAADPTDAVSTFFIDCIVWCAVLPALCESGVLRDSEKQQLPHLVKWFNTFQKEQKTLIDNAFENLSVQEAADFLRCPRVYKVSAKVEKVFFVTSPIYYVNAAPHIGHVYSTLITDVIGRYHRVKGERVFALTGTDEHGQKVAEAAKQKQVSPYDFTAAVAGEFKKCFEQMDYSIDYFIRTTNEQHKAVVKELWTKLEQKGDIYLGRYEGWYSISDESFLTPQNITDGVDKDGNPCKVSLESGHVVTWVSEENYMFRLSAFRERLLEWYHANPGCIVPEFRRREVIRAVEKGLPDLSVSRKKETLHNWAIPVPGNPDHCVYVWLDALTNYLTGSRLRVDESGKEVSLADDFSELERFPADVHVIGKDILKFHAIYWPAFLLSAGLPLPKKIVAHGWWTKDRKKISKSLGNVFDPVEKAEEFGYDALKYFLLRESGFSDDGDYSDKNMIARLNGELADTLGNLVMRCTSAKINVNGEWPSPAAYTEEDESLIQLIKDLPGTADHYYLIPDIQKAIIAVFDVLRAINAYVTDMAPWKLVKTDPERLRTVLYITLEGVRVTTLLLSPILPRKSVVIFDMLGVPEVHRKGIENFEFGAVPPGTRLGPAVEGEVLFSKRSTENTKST

[21] = Counterscreen for inhibitors of Trypanosoma brucei methionyl tRNA synthetase (MetRS): Luminescence-based cell-based high throughput dose response assay to identify compounds that are cytotoxic to Jurkat human T lymphocyte cells.; type: functional
[22] = molecular target: T2, Methionyl-tRNA synthetase, putative; type: functional, Trypanosoma brucei brucei strain 927/4 GUTat10.1; remark: listed apart in the source
[23] = inhibition of trypanosomal methionyl-tRNA synthetase – biochemical, fluorescence polarization, dose response, orthogonal assay for T. brucei MetRS inhibitor project, late-stage follow-up (AID 686969)
Cytochrome P450 2C9 = Cytochrome P450 2C9 (Homo sapiens, UniProt P11712)
Cytochrome P450 2C9, sequence (P11712 whole entry): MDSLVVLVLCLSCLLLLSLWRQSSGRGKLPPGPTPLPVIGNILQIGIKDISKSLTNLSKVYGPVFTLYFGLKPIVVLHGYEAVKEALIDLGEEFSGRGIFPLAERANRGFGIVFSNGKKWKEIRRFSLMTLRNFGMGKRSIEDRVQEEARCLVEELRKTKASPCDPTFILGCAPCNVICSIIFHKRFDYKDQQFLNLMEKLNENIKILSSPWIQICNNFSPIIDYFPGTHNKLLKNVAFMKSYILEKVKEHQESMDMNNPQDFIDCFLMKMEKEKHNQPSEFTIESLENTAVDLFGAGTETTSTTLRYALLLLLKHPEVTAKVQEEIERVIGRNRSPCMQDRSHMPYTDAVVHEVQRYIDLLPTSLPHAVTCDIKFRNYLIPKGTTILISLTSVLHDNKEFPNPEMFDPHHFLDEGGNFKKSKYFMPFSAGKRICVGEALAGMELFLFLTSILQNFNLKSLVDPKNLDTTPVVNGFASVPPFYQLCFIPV

[24] = fluconazole-exposed Candida albicans growth modulators – fluorescence, retest, confirmation (AID 2467); type: functional, cell-based
[25] = viability of HCT116 lacking mutant beta-catenin – cell-based, human colon tumor, dose response (AID 1045); type: functional;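 note: HCT116 colon tumor cells with beta catenin knocked out; cells exposed to compound for 60 hours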
[26] = viability of PTEN-deleted HCT116 cells – cell-based, HCT116 PTEN knockout, dose response (AID 1047); type: functional;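 note: HCT116 colon tumor cells with PTEN knocked out; cells exposed to compound for 60 hours before readout; potency for loss of cell viability measured by luminescence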
[27] = NIH-3T3 fibroblast cytotoxicity, dose response, cytotoxicity control, cell-based, fluorescence, Alamar Blue, secondary assay (AID 2327); type: functional;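 note: NIH-3T3 mouse fibroblasts cultured with fluconazole at 8 µg/mL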
[28] = reduced cellular PGC1a acetyl-lysine signal – cell-based, cherry-picked samples, dose response (AID 720514); type: functional;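 note: potency may reflect raised or lowered acetylation signal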
Cytochrome P450 3A4 = Cytochrome P450 3A4 (Homo sapiens, UniProt P08684);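 note: CYP3A4 tested as one member of a cytochrome P450 panel screen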
Cytochrome P450 3A4, sequence (P08684 whole entry): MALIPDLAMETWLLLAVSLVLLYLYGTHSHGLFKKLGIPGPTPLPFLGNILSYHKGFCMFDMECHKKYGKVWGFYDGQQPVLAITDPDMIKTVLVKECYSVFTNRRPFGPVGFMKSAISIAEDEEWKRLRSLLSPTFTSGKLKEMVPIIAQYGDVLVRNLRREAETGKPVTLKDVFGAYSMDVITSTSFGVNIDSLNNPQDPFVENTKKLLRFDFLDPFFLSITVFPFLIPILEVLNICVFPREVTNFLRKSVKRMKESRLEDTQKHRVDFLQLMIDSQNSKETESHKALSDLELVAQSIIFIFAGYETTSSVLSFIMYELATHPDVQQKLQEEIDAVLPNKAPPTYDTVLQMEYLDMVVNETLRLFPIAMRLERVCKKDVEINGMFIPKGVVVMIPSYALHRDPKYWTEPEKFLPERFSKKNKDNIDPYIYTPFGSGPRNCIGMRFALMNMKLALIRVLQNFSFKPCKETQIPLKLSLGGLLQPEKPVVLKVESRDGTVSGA

[29] = molecular target: T3, Microphthalmia-associated transcription factor (Homo sapiens, UniProt O75030); experiment: reducers of TRPM1 reporter luminescence, concentration series – cell-based, SK-MEL-5, cherry-picked, set 3, MITF inhibitor project, dose response (AID 493073); type: functional;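 note: SK-MEL-5 melanoma cells with luciferase driven by the MITF target TRPM1 promoter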
T3 sequence (O75030 whole entry): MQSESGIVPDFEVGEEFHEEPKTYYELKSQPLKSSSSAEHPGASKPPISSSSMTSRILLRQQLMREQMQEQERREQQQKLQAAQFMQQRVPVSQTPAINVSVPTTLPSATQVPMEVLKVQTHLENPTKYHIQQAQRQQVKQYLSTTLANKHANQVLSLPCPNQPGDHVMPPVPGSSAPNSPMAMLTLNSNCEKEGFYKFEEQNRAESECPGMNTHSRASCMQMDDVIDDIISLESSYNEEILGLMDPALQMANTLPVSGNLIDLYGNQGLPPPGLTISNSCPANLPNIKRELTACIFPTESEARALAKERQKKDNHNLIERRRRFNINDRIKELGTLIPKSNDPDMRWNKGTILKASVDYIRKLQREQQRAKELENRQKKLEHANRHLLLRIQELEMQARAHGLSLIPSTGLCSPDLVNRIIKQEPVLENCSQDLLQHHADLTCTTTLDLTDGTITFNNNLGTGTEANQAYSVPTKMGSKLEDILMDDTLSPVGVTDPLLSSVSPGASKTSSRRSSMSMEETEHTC

Fibrinogen beta chain [30] = molecular target: T4, Fibrinogen beta chain (Homo sapiens, UniProt P02675); experiment: Fluorescence polarization-based biochemical high throughput dose response assay to identify inhibitors that disrupt the binding of a cyclic peptide (Tn6) to the fibrin proteolytic product D-Dimer and fragment E complex [DD(E )].
T4 sequence (P02675 whole entry, the tested form may be a part): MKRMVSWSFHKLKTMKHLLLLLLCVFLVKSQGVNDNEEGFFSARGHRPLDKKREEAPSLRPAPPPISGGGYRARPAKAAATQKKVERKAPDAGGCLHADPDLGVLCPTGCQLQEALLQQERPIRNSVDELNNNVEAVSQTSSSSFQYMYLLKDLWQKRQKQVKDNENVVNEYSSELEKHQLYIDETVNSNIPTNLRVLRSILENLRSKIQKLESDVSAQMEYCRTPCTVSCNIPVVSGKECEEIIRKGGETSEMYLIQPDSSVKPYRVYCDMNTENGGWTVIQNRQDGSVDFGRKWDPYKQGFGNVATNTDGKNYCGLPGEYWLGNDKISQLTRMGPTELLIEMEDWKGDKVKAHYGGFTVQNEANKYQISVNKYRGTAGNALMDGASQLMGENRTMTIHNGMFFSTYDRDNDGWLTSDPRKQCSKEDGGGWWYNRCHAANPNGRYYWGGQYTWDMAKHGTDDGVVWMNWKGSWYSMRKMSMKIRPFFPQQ

Fibrinogen beta chain [31] = molecular target: T4, Fibrinogen beta chain; experiment: Fluorescence polarization-based biochemical high throughput dose response assay to identify inhibitors that disrupt the binding of a cyclic peptide (Tn7) to the fibrin proteolytic product D-Dimer and fragment E complex [DD(E )].
[32] = cervical cancer cell viability loss – HeLa, 24 h, plate reader, powder samples, set 3, cytotoxicity control, dose response (AID 651864); type: functional, cell-based
[33] = HepG2 hepatoma cell viability loss – plate reader, dry powder, cytotoxicity control, dose response (AID 651947); type: functional, cell-based
[34] = cytotoxicity in CCRF-CEM lymphoblastic leukemia cells – cell-based, CellTiter-Glo ATP luminescence, 8/24/48 h, dry powder, HRAS target identification, dose response (AID 720607); type: functional
[35] = cytotoxicity in SNB-75 CNS cells – cell-based, CellTiter-Glo ATP luminescence, several timepoints, dry powder, mechanism study for HRAS target identification, late-stage follow-up (AID 720624); type: functional
[36] = cytotoxicity in LOX IMVI melanoma cells – cell-based, CellTiter-Glo ATP luminescence, 8/24/48 h, dry powder, HRAS target identification, dose response (AID 720602); type: functional
[37] = time-course viability loss in HT-29 cells – cell-based, CellTiter-Glo, multiple timepoints, dry powder, HRas target identification project, dose response (AID 720598); type: functional
[38] = cytotoxicity in SR immunoblastic lymphoma cells – cell-based, CellTiter-Glo ATP luminescence, 8-48 h, dry powder, mechanism study for HRAS target identification, late-stage follow-up (AID 720608); type: functional
[39] = Luminescence-based counterscreen assay for KLF5 inhibitors: dose response cell-based high throughput screening assay to identify cytotoxic compounds using the IEC-6 intestinal epithelial cell line. [Related pubchem assays: 1700 (Primary screen.), 1834 (Confirmation screen.), 1858 (Summary AID.), 1905 (Counterscreen.)]; type: functional
[40] = ATP-based viability loss in HeLa cells – cell-based, CellTiter-Glo luminescence, dry powder, set 2, cytotoxicity control, dose response (AID 720593); type: functional
[41] = ATP-based viability loss in HEK293T cells – cell-based, CellTiter-Glo luminescence, dry powder, set 2, cytotoxicity control, dose response (AID 720595); type: functional; conditions: HEK293
Nonstructural protein 1 = Nonstructural protein 1 (Influenza A virus, UniProt Q194T2); type: functional, Influenza A virus (A/California/07/2009(H1N1))
Nonstructural protein 1, sequence (Q194T2 whole entry): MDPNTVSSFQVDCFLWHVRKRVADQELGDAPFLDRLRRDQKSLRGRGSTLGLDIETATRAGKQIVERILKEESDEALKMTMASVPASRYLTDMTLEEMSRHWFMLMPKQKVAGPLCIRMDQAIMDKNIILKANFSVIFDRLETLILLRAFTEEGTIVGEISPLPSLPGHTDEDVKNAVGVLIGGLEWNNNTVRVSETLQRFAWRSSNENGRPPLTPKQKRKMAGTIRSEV

COc1ccc(C2=C(NC(=O)c3ccccc3OC)C(=O)c3ccccc3C2=O)cc1
AC50 [1]: 32.4 µM (active) | AC50 [2]: 38.1 µM (active)

Cc1cccc(N(C)S(=O)(=O)c2ccc(-c3cnc(C4CC4)o3)cc2)c1
AC50 [3]: 3.81 µM (active) | AC50 [4]: 0.562 µM (inconclusive) | EC50 [5]: < 0.12 µM (active) | AC50 [6]: 13 µM (active) | AC50 (Paired box protein Pax-8): 1.99 µM (active) | IC50 [7]: > 67.5 µM (inactive) | IC50 [8]: > 80 µM (inactive) | AC50 [9]: 1.19 µM (active) | AC50 [10]: 0.778 µM (active) | AC50 [11]: 0.823 µM (active) | AC50 [12]: < 0.16 µM (active) | AC50 [13]: 76.2 µM (active) | AC50 [14]: 3.95 µM (active) | EC50 (BJ): 40.7 µM (active) | AC50 [15]: 33.9 µM (active) | AC50 [16]: 0.366 µM (active) | AC50 [17]: 0.364 µM (active) | IC50 (cells): > 67.5 µM (inactive) | AC50 [18]: 1.89 µM (active)

COc1ccc(CNC(=O)CSc2n[nH]c3c4cc(F)ccc4nc-3n2)cc1
IC50 [19]: > 83.3 µM (inactive) | IC50 [20]: 4.39 µM (active) | IC50 [21]: 83.3 µM (inactive) | IC50 [22]: 0.879 µM (active) | IC50 [23]: > 1.54 µM (active)

Cn1c(SC2=CS(=O)(=O)c3ccccc32)nc2ccccc21
AC50 (Cytochrome P450 2C9): 28.2 µM (inconclusive) | EC50 [24]: > 38 µM (not active) | EC50 [25]: 1.97 µM (active) | EC50 [26]: 2.87 µM (active) | EC50 [27]: 7.76 µM (inconclusive) | IC50 [8]: > 80 µM (inactive) | AC50 [28]: 11.3 µM (active) | AC50 (Cytochrome P450 3A4): 39.8 µM (inconclusive) | AC50 [29]: 6.72 µM (active)

CCOC(=O)C1(C)C(=O)CC2c3nc4ccccc4cc3CN2C1=O (stereo not drawn)
IC50 (Fibrinogen beta chain [30]): 9.24 µM (active) | IC50 (Fibrinogen beta chain [31]): > 83.2 µM (inactive)

CCn1nnc(CCc2ccc(N3CCCC3)cc2)n1
AC50 [32]: > 160 µM (inactive)

c1ccc(CSc2nnc(-c3ccccc3)s2)cc1
AC50 [33]: 33.8 µM (active)

Cc1onc(C(=O)N2CCN(C(c3ccc(Cl)cc3)c3ccc(Cl)cc3)CC2)c1[N+](=O)[O-]
AC50 [34]: 0.234 µM (active) | AC50 [35]: 0.723 µM (active) | AC50 [36]: 0.199 µM (active) | AC50 [37]: 1.3 µM (active) | AC50 [38]: 0.181 µM (active)

O=C(CSc1n[nH]c(-c2ccccn2)n1)Nc1ccc(Cl)cc1
IC50 [39]: 5.14 µM (active) | AC50 [40]: 47.5 µM (active) | AC50 [41]: 2.2 µM (active) | IC50 (Nonstructural protein 1): 8.79 µM (active)
